According to PMC9090415, “Discovery of small molecule inhibitors of Plasmodium falciparum apicoplast DNA polymerase” (Journal of Enzyme Inhibition and Medicinal Chemistry, 2022):

Molecular target: P. falciparum apicoplast DNA polymerase (Pf-apPOL) (Plasmodium falciparum, UniProt Q8ILY1)
Assay: Fluorescence-based high-throughput DNA polymerase assay (molecular beacon), primary screen and dose-response
Format: biochemical
Conditions: for DNA Pol: 90 min, 10 µM; for % inhibition Apo pol 10' 2.5 / % inhibition Apo pol 10' 5 / % inhibition Apo pol 10' 10 / % inhibition Apo pol 10' 20 / % inhibition Apo pol 10' 40 / % inhibition Apo pol 10' 80: read at 10'; for % inhibition Apol 90' 2.5 / % inhibition Apol 90' 5 / % inhibition Apol 90' 10 / % inhibition Apol 90' 20 / % inhibition Apol 90' 40 / % inhibition Apol 90' 80 / % inhibition ApPOL 90' 2.5 / % inhibition ApPOL 90' 5 / % inhibition ApPOL 90' 10 / % inhibition ApPOL 90' 20 / % inhibition ApPOL 90' 40 / % inhibition ApPOL 90' 80: read at 90'; for % inhibition apPOL 180' 2.5 / % inhibition apPOL 180' 5 / % inhibition apPOL 180' 10 / % inhibition apPOL 180' 20 / % inhibition apPOL 180' 40 / % inhibition apPOL 180' 80: read at 180'; for % inhibition Apo pol 5' 2.5 / % inhibition Apo pol 5' 5 / % inhibition Apo pol 5' 10 / % inhibition Apo pol 5' 20 / % inhibition Apo pol 5' 40 / % inhibition Apo pol 5' 80: read at 5'; for % inhibition Apol 40' 2.5 / % inhibition Apol 40' 5 / % inhibition Apol 40' 10 / % inhibition Apol 40' 20 / % inhibition Apol 40' 40 / % inhibition Apol 40' 80: read at 40'
Outline: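 Single-point screening used 10 µM compound with 20 nM polymerase, 20 nM hairpin substrate and 6 µM dNTPs for 90 min at 25 °C. Confirmatory titrations (2.5–80 µM) followed fluorescence at three times, and IC50 was derived from a fit including a cooperativity term n.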

[1] = 186 hits, DNA Pol (screen value), unit not given
[2] = 'DNA Pol' (screen value), unit not given

Chain of P. falciparum apicoplast DNA polymerase (Pf-apPOL) (Q8ILY1 entry or part of it): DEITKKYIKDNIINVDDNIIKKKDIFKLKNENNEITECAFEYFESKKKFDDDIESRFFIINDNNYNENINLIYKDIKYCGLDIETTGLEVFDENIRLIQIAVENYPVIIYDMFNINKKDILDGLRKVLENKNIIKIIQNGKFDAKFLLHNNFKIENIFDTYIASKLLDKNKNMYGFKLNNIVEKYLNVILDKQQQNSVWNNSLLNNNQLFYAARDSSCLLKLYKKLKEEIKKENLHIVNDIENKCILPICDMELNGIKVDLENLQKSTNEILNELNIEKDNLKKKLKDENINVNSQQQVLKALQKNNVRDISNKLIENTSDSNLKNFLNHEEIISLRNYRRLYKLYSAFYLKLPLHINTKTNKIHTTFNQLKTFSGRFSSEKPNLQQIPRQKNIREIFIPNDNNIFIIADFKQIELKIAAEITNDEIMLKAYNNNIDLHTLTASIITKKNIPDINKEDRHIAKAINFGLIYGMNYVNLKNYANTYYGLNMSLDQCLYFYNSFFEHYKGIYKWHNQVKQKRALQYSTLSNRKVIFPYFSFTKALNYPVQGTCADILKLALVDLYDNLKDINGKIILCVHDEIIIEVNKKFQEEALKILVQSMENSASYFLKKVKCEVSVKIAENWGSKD

COc1ccc(/C=C/c2cc(C(=O)O)c3ccccc3n2)cc1 [Molecule 5, COc1ccc(cc1)/C=C/c1nc2ccccc2c(c1)C(=O)O]
DNA Pol [1]: 61
DNA Pol [2]: 61
% inhibition Apo pol 10' 2.5 (DRC-1, concentration 2.5): 43.4862%
% inhibition Apo pol 10' 5 (DRC-1, concentration 5): 53.3879%
% inhibition Apo pol 10' 10 (DRC-1, concentration 10): 61.7052%
% inhibition Apo pol 10' 20 (DRC-1, concentration 20): 65.8277%
% inhibition Apo pol 10' 40 (DRC-1, concentration 40): 71.2771%
% inhibition Apo pol 10' 80 (DRC-1, concentration 80): 72.4327%
% inhibition Apol 90' 2.5 (DRC-1, concentration 2.5): 35.7188%
% inhibition Apol 90' 5 (DRC-1, concentration 5): 44.8099%
% inhibition Apol 90' 10 (DRC-1, concentration 10): 55.1819%
% inhibition Apol 90' 20 (DRC-1, concentration 20): 60.94%
% inhibition Apol 90' 40 (DRC-1, concentration 40): 68.5014%
% inhibition Apol 90' 80 (DRC-1, concentration 80): 67.8921%
% inhibition apPOL 180' 2.5 (DRC-1, concentration 2.5): 28.4361%
% inhibition apPOL 180' 5 (DRC-1, concentration 5): 35.945%
% inhibition apPOL 180' 10 (DRC-1, concentration 10): 46.8104%
% inhibition apPOL 180' 20 (DRC-1, concentration 20): 54.1695%
% inhibition apPOL 180' 40 (DRC-1, concentration 40): 63.6204%
% inhibition apPOL 180' 80 (DRC-1, concentration 80): 63.471%
% inhibition Apo pol 5' (DRC-2, concentration 20): 38%
% inhibition Apol 40' (DRC-2, concentration 2.5): 46%
% inhibition Apol 40' (DRC-2, concentration 5): 36%
% inhibition Apol 40' (DRC-2, concentration 20): 46%
% inhibition Apol 40' (DRC-2, concentration 80): 38%
% inhibition ApPOL 90' (DRC-2, concentration 2.5): 45%
% inhibition ApPOL 90' (DRC-2, concentration 5): 36%
% inhibition ApPOL 90' (DRC-2, concentration 20): 46%
% inhibition apPOL 180' (DRC-2, concentration 20): 38%
% inhibition apPOL 180' (DRC-2, concentration 80): 45%
% inhibition Apo pol 5' 2.5 (DRC-2, concentration 2.5): 37%
% inhibition Apo pol 5' 5 (DRC-2, concentration 5): 31%
% inhibition Apo pol 5' 10 (DRC-2, concentration 10): 8.56%
% inhibition Apo pol 5' 20 (DRC-2, concentration 20): 38%
% inhibition Apo pol 5' 40 (DRC-2, concentration 40): 43%
% inhibition Apo pol 5' 80 (DRC-2, concentration 80): 14%
% inhibition Apol 40' 2.5 (DRC-2, concentration 2.5): 46%
% inhibition Apol 40' 5 (DRC-2, concentration 5): 36%
% inhibition Apol 40' 10 (DRC-2, concentration 10): -66%
% inhibition Apol 40' 20 (DRC-2, concentration 20): 46%
% inhibition Apol 40' 40 (DRC-2, concentration 40): 55%
% inhibition Apol 40' 80 (DRC-2, concentration 80): 38%
% inhibition ApPOL 90' 2.5 (DRC-2, concentration 2.5): 45%
% inhibition ApPOL 90' 5 (DRC-2, concentration 5): 36%
% inhibition ApPOL 90' 10 (DRC-2, concentration 10): -90%
% inhibition ApPOL 90' 20 (DRC-2, concentration 20): 46%
% inhibition ApPOL 90' 40 (DRC-2, concentration 40): 56%
% inhibition ApPOL 90' 80 (DRC-2, concentration 80): 44%
% inhibition apPOL 180' 2.5 (DRC-2, concentration 2.5): 34%
% inhibition apPOL 180' 5 (DRC-2, concentration 5): 25%
% inhibition apPOL 180' 10 (DRC-2, concentration 10): -139%
% inhibition apPOL 180' 20 (DRC-2, concentration 20): 38%
% inhibition apPOL 180' 40 (DRC-2, concentration 40): 50%
% inhibition apPOL 180' 80 (DRC-2, concentration 80): 45%

O=C(CCc1csc(NC(=O)Nc2ccccc2)n1)Nc1nc2ccccc2s1 [KU0177354]
DNA Pol [1]: 40
DNA Pol [2]: 40
% inhibition Apo pol 10' 2.5 (DRC-1, concentration 2.5): 5.576%
% inhibition Apo pol 10' 5 (DRC-1, concentration 5): 8.503%
% inhibition Apo pol 10' 10 (DRC-1, concentration 10): 43.0217%
% inhibition Apo pol 10' 20 (DRC-1, concentration 20): 76.9078%
% inhibition Apo pol 10' 40 (DRC-1, concentration 40): 79.3304%
% inhibition Apo pol 10' 80 (DRC-1, concentration 80): 82.5837%
% inhibition Apol 90' 2.5 (DRC-1, concentration 2.5): -1.376%
% inhibition Apol 90' 5 (DRC-1, concentration 5): -0.284%
% inhibition Apol 90' 10 (DRC-1, concentration 10): 25.6988%
% inhibition Apol 90' 20 (DRC-1, concentration 20): 59.1025%
% inhibition Apol 90' 40 (DRC-1, concentration 40): 63.1922%
% inhibition Apol 90' 80 (DRC-1, concentration 80): 69.3927%
% inhibition apPOL 180' 2.5 (DRC-1, concentration 2.5): -6.865%
% inhibition apPOL 180' 5 (DRC-1, concentration 5): -6.2%
% inhibition apPOL 180' 10 (DRC-1, concentration 10): 11.7395%
% inhibition apPOL 180' 20 (DRC-1, concentration 20): 39.4261%
% inhibition apPOL 180' 40 (DRC-1, concentration 40): 45.9927%
% inhibition apPOL 180' 80 (DRC-1, concentration 80): 55.8861%
% inhibition Apo pol 5' (DRC-2, concentration 5): -6%
% inhibition Apo pol 5' (DRC-2, concentration 20): 37%
% inhibition Apol 40' (DRC-2, concentration 5): -6%
% inhibition Apol 40' (DRC-2, concentration 10): 46%
% inhibition Apol 40' (DRC-2, concentration 20): 49%
% inhibition Apol 40' (DRC-2, concentration 40): 53%
% inhibition Apol 40' (DRC-2, concentration 80): 49%
% inhibition ApPOL 90' (DRC-2, concentration 40): 53%
% inhibition apPOL 180' (DRC-2, concentration 20): 37%
% inhibition apPOL 180' (DRC-2, concentration 80): 46%
% inhibition Apo pol 5' 2.5 (DRC-2, concentration 2.5): -3.16%
% inhibition Apo pol 5' 5 (DRC-2, concentration 5): -6%
% inhibition Apo pol 5' 10 (DRC-2, concentration 10): 38%
% inhibition Apo pol 5' 20 (DRC-2, concentration 20): 37%
% inhibition Apo pol 5' 40 (DRC-2, concentration 40): 34%
% inhibition Apo pol 5' 80 (DRC-2, concentration 80): 29%
% inhibition Apol 40' 2.5 (DRC-2, concentration 2.5): -3.41%
% inhibition Apol 40' 5 (DRC-2, concentration 5): -6%
% inhibition Apol 40' 10 (DRC-2, concentration 10): 46%
% inhibition Apol 40' 20 (DRC-2, concentration 20): 49%
% inhibition Apol 40' 40 (DRC-2, concentration 40): 53%
% inhibition Apol 40' 80 (DRC-2, concentration 80): 49%
% inhibition ApPOL 90' 2.5 (DRC-2, concentration 2.5): -4%
% inhibition ApPOL 90' 5 (DRC-2, concentration 5): -7%
% inhibition ApPOL 90' 10 (DRC-2, concentration 10): 43%
% inhibition ApPOL 90' 20 (DRC-2, concentration 20): 48%
% inhibition ApPOL 90' 40 (DRC-2, concentration 40): 53%
% inhibition ApPOL 90' 80 (DRC-2, concentration 80): 51%
% inhibition apPOL 180' 2.5 (DRC-2, concentration 2.5): -8%
% inhibition apPOL 180' 5 (DRC-2, concentration 5): -12%
% inhibition apPOL 180' 10 (DRC-2, concentration 10): 32%
% inhibition apPOL 180' 20 (DRC-2, concentration 20): 37%
% inhibition apPOL 180' 40 (DRC-2, concentration 40): 47%
% inhibition apPOL 180' 80 (DRC-2, concentration 80): 46%

O=C(NNC(=O)c1ccc(Cl)cc1)C(=O)NNC(=O)c1ccc(Cl)cc1 [Molecule 25, O=C(C(=O)NNC(=O)c1ccc(cc1)Cl)NNC(=O)c1ccc(cc1)Cl]
DNA Pol ('DNA Pol' of the 186 hits list (primary screen value)): 75
DNA Pol (DNA Pol (primary screen value)): 75
% inhibition Apo pol 10' (DRC-1, concentration 2.5): 0.1123%
% inhibition Apo pol 10' (DRC-1, concentration 5): 29.8674%
% inhibition Apo pol 10' (DRC-1, concentration 10): 53.2072%
% inhibition Apo pol 10' (DRC-1, concentration 20): 61.5061%
% inhibition Apo pol 10' (DRC-1, concentration 40): 64.1413%
% inhibition Apo pol 10' (DRC-1, concentration 80): 75.0048%
% inhibition Apol 90' (DRC-1, concentration 2.5): -1.798%
% inhibition Apol 90' (DRC-1, concentration 5): 28.7698%
% inhibition Apol 90' (DRC-1, concentration 10): 48.8169%
% inhibition Apol 90' (DRC-1, concentration 20): 54.9619%
% inhibition Apol 90' (DRC-1, concentration 40): 57.5316%
% inhibition Apol 90' (DRC-1, concentration 80): 69.6376%
% inhibition apPOL 180' (DRC-1, concentration 2.5): -4.906%
% inhibition apPOL 180' (DRC-1, concentration 5): 25.5591%
% inhibition apPOL 180' (DRC-1, concentration 10): 45.9729%
% inhibition apPOL 180' (DRC-1, concentration 20): 50.6657%
% inhibition apPOL 180' (DRC-1, concentration 40): 53.135%
% inhibition apPOL 180' (DRC-1, concentration 80): 64.4119%
% inhibition Apo pol 5' (DRC-2, concentration 2.5): 2.6%
% inhibition Apo pol 5' (DRC-2, concentration 5): 10%
% inhibition Apo pol 5' (DRC-2, concentration 10): 29%
% inhibition Apo pol 5' (DRC-2, concentration 20): 45%
% inhibition Apo pol 5' (DRC-2, concentration 40): 49%
% inhibition Apo pol 5' (DRC-2, concentration 80): 51%
% inhibition Apol 40' (DRC-2, concentration 2.5): 2%
% inhibition Apol 40' (DRC-2, concentration 5): 13%
% inhibition Apol 40' (DRC-2, concentration 10): 35%
% inhibition Apol 40' (DRC-2, concentration 20): 54%
% inhibition Apol 40' (DRC-2, concentration 40): 58%
% inhibition Apol 40' (DRC-2, concentration 80): 62%
% inhibition ApPOL 90' (DRC-2, concentration 2.5): 0.656%
% inhibition ApPOL 90' (DRC-2, concentration 5): 13%
% inhibition ApPOL 90' (DRC-2, concentration 10): 36%
% inhibition ApPOL 90' (DRC-2, concentration 20): 54%
% inhibition ApPOL 90' (DRC-2, concentration 40): 60%
% inhibition ApPOL 90' (DRC-2, concentration 80): 64%
% inhibition apPOL 180' (DRC-2, concentration 2.5): -2.65%
% inhibition apPOL 180' (DRC-2, concentration 5): 7.39%
% inhibition apPOL 180' (DRC-2, concentration 10): 30%
% inhibition apPOL 180' (DRC-2, concentration 20): 48%
% inhibition apPOL 180' (DRC-2, concentration 40): 55%
% inhibition apPOL 180' (DRC-2, concentration 80): 62%
